Columns and labels:
Assay type in all cases: cell-based
[1] = tested on: Pseudomonas aeruginosa; assay: Wood preservative efficacy against bacteria and yeasts, tryptose agar plates; set-up: key: 0 = growth equal to control, 1 = growth inhibited, 2 = no growth; settings: 100 ppm in tryptose agar
Method: (§1) Compositions were prepared by dissolving the compounds shown in Table 1 in 50% ethanol and further diluting with sterile distilled water. […] After cooling, the medium was inoculated with the bacteria listed below. After sufficient growth of the untreated cultures, the compounds were evaluated using the following rating system: 0=growth equal to control 1=inhibition of growth by the compound 2=no growth under the influence of the compound. In this Table, the higher numbers are the most preferred species. Pseudomonas aeruginosa (gram neg)

[2] = tested on: Flavobacterium sp.; assay: as above; set-up: key: 0 = growth equal to control, 1 = growth inhibited, 2 = no growth
Method: as §1, with “Flavobacterium sp.” for “Pseudomonas aeruginosa”

[3] = tested on: Enterobacter aerogenes; assay: as above; set-up: key: 0 = growth equal to control, 1 = inhibition, 2 = no growth
Method: as §1, with “Enterobacter aerogenes” for “Pseudomonas aeruginosa”

[4] = tested on: Chaetomium globosum; assay: Wood preservative efficacy against fungi, agar plate colony diameter
Method: (§2) Each plate was inoculated with a spore suspension or with a small piece of agar (1 mm) from the margin of an actively growing colony of the test fungus. The fungi employed are listed below. After incubation at 22° C. and 70% relative humidity during a period long enough to allow significant growth of untreated controls, the diameters of the fungus colonies were measured and scored using the following rating system: 0=free of fungal growth 1=25% of fungal growth compared to untreated 2=50% of fungal growth compared to untreated 3=75% of fungal growth compared to untreated 4=Growth equal to that of untreated The scores measured for wood preservation efficacy of the compounds of this invention are listed in Tables 6a and 6b. In these Tables, the lower numbers are the most preferred species. Chaetomium globosum

[5] = tested on: Mucor sp.; assay: as above
Method: as §2, with “Mucor sp.” for “Chaetomium globosum”

[6] = tested on: Aureobasidium pullulans; assay: as above; set-up: key: 1=25%, 2=50%, 3=75%, 4=100% of untreated growth; lower better
Method: (§3) The compounds shown in Table 1 were dissolved in 50% ethanol and then diluted with sterile water to give the required concentrations of 1 and 10 ppm in the test agar plates. Malt extract sugar (3%) was added aseptically and uniform distribution was obtained by shaking. Each plate was inoculated with a spore suspension or with a small piece of agar (1 mm) from the margin of an actively growing colony of the test fungus. The fungi employed are listed below. After incubation at 22° C. and 70% relative humidity during a period long enough to allow significant growth of untreated controls, the diameters of the fungus colonies were measured and scored using the following rating system:
(§4) 1=25% of fungal growth compared to untreated
(§5) 2=50% of fungal growth compared to untreated
(§6) 3=75% of fungal growth compared to untreated
(§7) 4=Growth equal to that of untreated
(§8) In these Tables, the lower numbers are the most preferred species.

[7] = tested on: Penicillium islandicum; assay: as above; set-up: key: 1 = 25%, 2 = 50%, 3 = 75%, 4 = 100% of untreated fungal growth
Method: as §3, §4, §5, §6, §7, §8

[8] = tested on: Aspergillus niger; assay: as above
Method: as §2, with “Aspergillus niger” for “Chaetomium globosum”

[9] = tested on: Aspergillus flavus; assay: as above
Method: as §2, with “Aspergillus flavus” for “Chaetomium globosum”

[10] = tested on: Trichoderma viride; assay: as above
Method: as §2, with “Trichoderma viride” for “Chaetomium globosum”

## CCOC(=O)c1ccc(C2=NOCC[S+]2[O-])cc1 (centres unmarked) [Compound 22]
[1]
  Score of bactericidal activity, P. aeruginosa: 0
[2]; 10 ppm in tryptose agar
  Score of bactericidal activity, Flavobacter: 1
[2]; 100 ppm in tryptose agar
  Score of bactericidal activity, Flavobacter: 2
[3]; 10 ppm in tryptose agar
  Score of bactericidal activity, E. aerogenes: 0
[3]; 100 ppm in tryptose agar
  Score of bactericidal activity, E. aerogenes: 0
[4]; 10 ppm, Table 6B
  Score of fungicidal activity, C. GLOBOSUM: 4
[5]; 100 ppm, Table 6B
  Score of fungicidal activity, MUCOR SP: 0
[6]; 10 ppm, Table 6B
  Score of fungicidal activity, A. PULLULANS: 4
[7]; 10 ppm, Table 6B
  Score of fungicidal activity, P. ISLANDICUM: 2 (50% of growth compared to untreated control)
[8]; 10 ppm, Table 6B
  Score of fungicidal activity, A. NIGER: 3 (75% of growth compared to untreated control)
[9]; 10 ppm, Table 6B
  Score of fungicidal activity, A. FLAVUS: 2 (50% of growth compared to untreated control)
[10]; 10 ppm, Table 6B
  Score of fungicidal activity, T. VIRIDE: 3 (75% of growth compared to untreated control)

## C[S+]1CCON=C1c1ccc(Cl)cc1 (centres unmarked) [Compound 1]
[1]
  Score of bactericidal activity, P. aeruginosa: 0
[2]; 100 ppm in tryptose agar
  Score of bactericidal activity, Flavobacter: 2
[3]; 100 ppm in tryptose agar
  Score of bactericidal activity, E. aerogenes: 0
[4]; Test dosage 10 ppm, Table 6A
  Score of fungicidal activity, C. GLOBOSUM: 0
[6]; Test dosage 10 ppm, Table 6A
  Score of fungicidal activity, A. PULLULANS: 3 (75% of growth compared to untreated control)
[7]; Test dosage 10 ppm, Table 6A
  Score of fungicidal activity, P. ISLANDICUM: 0
[8]; Test dosage 10 ppm, Table 6A
  Score of fungicidal activity, A. NIGER: 0
[9]; Test dosage 10 ppm, Table 6A
  Score of fungicidal activity, A. FLAVUS: 0
[10]; Test dosage 10 ppm, Table 6A
  Score of fungicidal activity, T. VIRIDE: 2 (50% of growth compared to untreated control)

## [O-][S+]1CCON=C1c1ccc(Cl)c(Cl)c1 (centres unmarked) [Compound 4]
[1]
  Score of bactericidal activity, P. aeruginosa: 0
[2]; 100 ppm in tryptose agar
  Score of bactericidal activity, Flavobacter: 2
[3]; 100 ppm in tryptose agar
  Score of bactericidal activity, E. aerogenes: 0
[4]; Test dosage 10 ppm, Table 6A
  Score of fungicidal activity, C. GLOBOSUM: 0
[6]; Test dosage 10 ppm, Table 6A
  Score of fungicidal activity, A. PULLULANS: 2 (50% of growth compared to untreated control)
[7]; Test dosage 10 ppm, Table 6A
  Score of fungicidal activity, P. ISLANDICUM: 0
[8]; Test dosage 10 ppm, Table 6A
  Score of fungicidal activity, A. NIGER: 0
[9]; Test dosage 10 ppm, Table 6A
  Score of fungicidal activity, A. FLAVUS: 0
[10]; Test dosage 10 ppm, Table 6A
  Score of fungicidal activity, T. VIRIDE: 1 (25% of growth compared to untreated control)

## CC(=O)c1ccc(C2=NOCC[S+]2[O-])cc1 (centres unmarked) [Compound 14]
[1]
  Score of bactericidal activity, P. aeruginosa: 1
[2]; 100 ppm in tryptose agar
  Score of bactericidal activity, Flavobacter: 2
[3]; 100 ppm in tryptose agar
  Score of bactericidal activity, E. aerogenes: 0
[4]; Test dosage 10 ppm, Table 6A
  Score of fungicidal activity, C. GLOBOSUM: 4
[5]; Test dosage 10 ppm, Table 6A
  Score of fungicidal activity, MUCOR SP: 1 (25% of growth compared to untreated control)
[6]; Test dosage 10 ppm, Table 6A
  Score of fungicidal activity, A. PULLULANS: 4
[7]; Test dosage 10 ppm, Table 6A
  Score of fungicidal activity, P. ISLANDICUM: 4
[8]; Test dosage 10 ppm, Table 6A
  Score of fungicidal activity, A. NIGER: 3 (75% of growth compared to untreated control)
[9]; Test dosage 10 ppm, Table 6A
  Score of fungicidal activity, A. FLAVUS: 2 (50% of growth compared to untreated control)
[10]; Test dosage 10 ppm, Table 6A
  Score of fungicidal activity, T. VIRIDE: 3 (75% of growth compared to untreated control)

## CCOc1ccc(C2=NOCC[S+]2C)cc1 (centres unmarked) [Compound 28]
[1]
  Score of bactericidal activity, P. aeruginosa: 0
[2]; 10 ppm in tryptose agar
  Score of bactericidal activity, Flavobacter: 0
[2]; 100 ppm in tryptose agar
  Score of bactericidal activity, Flavobacter: 2
[3]; 10 ppm in tryptose agar
  Score of bactericidal activity, E. aerogenes: 0
[3]; 100 ppm in tryptose agar
  Score of bactericidal activity, E. aerogenes: 0
[4]; 10 ppm, Table 6B
  Score of fungicidal activity, C. GLOBOSUM: 4
[5]; 100 ppm, Table 6B
  Score of fungicidal activity, MUCOR SP: 1 (25% of growth compared to untreated control)
[6]; 10 ppm, Table 6B
  Score of fungicidal activity, A. PULLULANS: 4
[7]; 10 ppm, Table 6B
  Score of fungicidal activity, P. ISLANDICUM: 4
[8]; 10 ppm, Table 6B
  Score of fungicidal activity, A. NIGER: 4
[9]; 10 ppm, Table 6B
  Score of fungicidal activity, A. FLAVUS: 3 (75% of growth compared to untreated control)
[10]; 10 ppm, Table 6B
  Score of fungicidal activity, T. VIRIDE: 3 (75% of growth compared to untreated control)

## C[S+]1CCON=C1c1cc(Cl)cc(Cl)c1 (centres unmarked) [Compound 19]
[1]
  Score of bactericidal activity, P. aeruginosa: 0
[2]; 10 ppm in tryptose agar
  Score of bactericidal activity, Flavobacter: 0
[2]; 100 ppm in tryptose agar
  Score of bactericidal activity, Flavobacter: 2
[3]; 10 ppm in tryptose agar
  Score of bactericidal activity, E. aerogenes: 0
[3]; 100 ppm in tryptose agar
  Score of bactericidal activity, E. aerogenes: 0
[4]; 10 ppm, Table 6B
  Score of fungicidal activity, C. GLOBOSUM: 0
[5]; 100 ppm, Table 6B
  Score of fungicidal activity, MUCOR SP: 2 (50% of growth compared to untreated control)
[6]; 10 ppm, Table 6B
  Score of fungicidal activity, A. PULLULANS: 3 (75% of growth compared to untreated control)
[7]; 10 ppm, Table 6B
  Score of fungicidal activity, P. ISLANDICUM: 0
[8]; 10 ppm, Table 6B
  Score of fungicidal activity, A. NIGER: 0
[9]; 10 ppm, Table 6B
  Score of fungicidal activity, A. FLAVUS: 0
[10]; 10 ppm, Table 6B
  Score of fungicidal activity, T. VIRIDE: 2 (50% of growth compared to untreated control)

## [O-][S+]1CCON=C1c1cccs1 (centres unmarked) [Compound 8]
[1]
  Score of bactericidal activity, P. aeruginosa: 1
[2]; 100 ppm in tryptose agar
  Score of bactericidal activity, Flavobacter: 2
[3]; 100 ppm in tryptose agar
  Score of bactericidal activity, E. aerogenes: 2
[4]; Test dosage 10 ppm, Table 6A
  Score of fungicidal activity, C. GLOBOSUM: 2 (50% of growth compared to untreated control)
[6]; Test dosage 10 ppm, Table 6A
  Score of fungicidal activity, A. PULLULANS: 2 (50% of growth compared to untreated control)
[7]; Test dosage 10 ppm, Table 6A
  Score of fungicidal activity, P. ISLANDICUM: 0
[8]; Test dosage 10 ppm, Table 6A
  Score of fungicidal activity, A. NIGER: 1 (25% of growth compared to untreated control)
[9]; Test dosage 10 ppm, Table 6A
  Score of fungicidal activity, A. FLAVUS: 1 (25% of growth compared to untreated control)
[10]; Test dosage 10 ppm, Table 6A
  Score of fungicidal activity, T. VIRIDE: 2 (50% of growth compared to untreated control)

## C[S+]1CCON=C1c1ccc(C(F)(F)F)cc1 (centres unmarked) [Compound 25]
[1]
  Score of bactericidal activity, P. aeruginosa: 0
[2]; 10 ppm in tryptose agar
  Score of bactericidal activity, Flavobacter: 1
[2]; 100 ppm in tryptose agar
  Score of bactericidal activity, Flavobacter: 2
[3]; 10 ppm in tryptose agar
  Score of bactericidal activity, E. aerogenes: 0
[3]; 100 ppm in tryptose agar
  Score of bactericidal activity, E. aerogenes: 0
[4]; 10 ppm, Table 6B
  Score of fungicidal activity, C. GLOBOSUM: 3 (75% of growth compared to untreated control)
[5]; 10 ppm, Table 6B
  Score of fungicidal activity, MUCOR SP: 3 (75% of growth compared to untreated control)
[5]; 100 ppm, Table 6B
  Score of fungicidal activity, MUCOR SP: 0
[6]; 10 ppm, Table 6B
  Score of fungicidal activity, A. PULLULANS: 3 (75% of growth compared to untreated control)
[7]; 10 ppm, Table 6B
  Score of fungicidal activity, P. ISLANDICUM: 1 (25% of growth compared to untreated control)
[8]; 10 ppm, Table 6B
  Score of fungicidal activity, A. NIGER: 0
[9]; 10 ppm, Table 6B
  Score of fungicidal activity, A. FLAVUS: 0
[10]; 10 ppm, Table 6B
  Score of fungicidal activity, T. VIRIDE: 2 (50% of growth compared to untreated control)

## COC(=O)c1cccc(C2=NOCC[S+]2[O-])c1 (centres unmarked) [Compound 26]
[1]
  Score of bactericidal activity, P. aeruginosa: 0
[2]; 10 ppm in tryptose agar
  Score of bactericidal activity, Flavobacter: 0
[2]; 100 ppm in tryptose agar
  Score of bactericidal activity, Flavobacter: 2
[3]; 10 ppm in tryptose agar
  Score of bactericidal activity, E. aerogenes: 0
[3]; 100 ppm in tryptose agar
  Score of bactericidal activity, E. aerogenes: 0
[4]; 10 ppm, Table 6B
  Score of fungicidal activity, C. GLOBOSUM: 4
[5]; 100 ppm, Table 6B
  Score of fungicidal activity, MUCOR SP: 2 (50% of growth compared to untreated control)
[6]; 10 ppm, Table 6B
  Score of fungicidal activity, A. PULLULANS: 4
[7]; 10 ppm, Table 6B
  Score of fungicidal activity, P. ISLANDICUM: 4
[8]; 10 ppm, Table 6B
  Score of fungicidal activity, A. NIGER: 4
[9]; 10 ppm, Table 6B
  Score of fungicidal activity, A. FLAVUS: 4
[10]; 10 ppm, Table 6B
  Score of fungicidal activity, T. VIRIDE: 3 (75% of growth compared to untreated control)
